# According to patent publication US4239768A, “Method for relieving irritable bowel syndrome symptoms” (McNeilab, Inc., priority 1978, dated 1980):
# Counter-ions that a name gives are not always drawn. Like-named read-outs stand apart in the source and are kept apart here.
# Test system: sensitivity to distension of th colonic wall
# Assay: Glass bead expulsion test (time between rectal insertion and expulsion of bead)
# Assay type: in vivo, male albino mice
# Conditions: Mus musculus, 1 h, drug given one hour prior to glass bead insertion, ED50 = dose causing an activity index of 2
# From the text: The disorder is characterized by abdominal pain, diarrhea, constipation and like symptoms caused by excessive sensitivity to distension of the bowel by the presence of intestinal gas and/or fecal material. The extent to which a compound is effective in providing relief may be determined by a test in which a glass bead is inserted into the rectum and the lapse of time between insertion and expulsion of the bead determined. Compounds which are effective in decreasing the sensitivity to distension of th colonic wall delays the expulsion of the bead. The test is carried out with male albino mice of 18-25 grams body weight using groups of five mice for each compound dose tested. The initial screen dose selected for all compounds is 50 milligrams per kilogram of body weight (mg/kg) administered orally in a volume of 0.1 milliliter per 10 grams of body weight. The control groups receive the vehicle, 0.5 percent methocel, used for both oral and intraperitoneal administration. The mice are fasted one hour before testing and the test drugs are given one hour prior to glass bead insertion. At the end of the pretreatment time, the mouse is picked up and held firmly in one hand with his abdomen facing the technician. The glass bead of 3 millimeters in diameter is positioned at the rectum and using a pinching action with a thumb and forefinger, the bead is pushed into the rectum. Then using a glass rod of 3 millimeters in diameter which has been lubricated with 0.5 percent methocel to facilitate insertion, the glass bead is pushed up into the rectum a distance of 2 centimeters using a slow gentle turning motion. The mice are timed as a group using the last mouse inserted as zero time and the number of beads expelled in a group at different timed intervals are recorded. The groups are based on timed intervals of 0 to 5 minutes, 5 to 10 minutes, 10 to 20 minutes, 20 to 40 minutes and greater than 40 minutes. They are given the activity index values of 0, 1, 2, 3 and 4, respectively. Mice who have not expelled their beads by the 40-minute cutoff time are examined for perforations. Those mice whose colons are perforated are eliminated from the group. The sum of the values divided by the number of mice or beads is termed the activity index for the drug tested. The ED50 is determined by regression lines using the method of least squares. The ED50 is arbitrarily assigned as that dose causing an activity index of 2. The results of this test employing intraperitoneal and oral administration of N-aryl-N'-(2-imidazolidinylidene)urea compounds are shown in Table I.
# [1] = ip, intraperitoneal, read-out: ED50 Intraperitoneal
SMILES,"ED50 (oral, read-out: ED50 Per Os) [mg/kg]",ED50 [1] [mg/kg]
"Cc1cccc(C)c1NC(=O)N=C1NCCN1 [2,6-di(CH3)-.phi., N-(2,6-dimethylphenyl)-N'-(2-imidazolidinylidene)urea]",16,12
"Cl.O=C(N=C1NCCN1)Nc1c(Br)cccc1Br [2,6-diBr-.phi., N-(2,6-dibromophenyl)-N'-(2-imidazolidinylidene)urea hydrochloride]",38,9
"Cl.O=C(N=C1NCCN1)Nc1c(Cl)cccc1Cl [2,6-diCl-.phi., N-(2,6-Dichlorophenyl)-N'-(2-imidazolidinylidene)urea Hydrochloride]",13.7,7
"CCc1cccc(C)c1NC(=O)N=C1NCCN1 [2-C2 H5,6-CH3 -.phi., N-(2-Ethyl-6-methylphenyl)-N'-(2-imidazolidinylidene)urea. Fumarate (3:2)]",121,43
"Cc1cccc(Cl)c1NC(=O)N=C1NCCN1.Cl [2-Cl,6-CH3 -.phi., N-(2-chloro-6-methylphenyl)-N'-(2-imidazolidinylidene)urea hydrochloride]",35,8
